The results in this text go back to ChEMBL document CHEMBL2073894, “Localization of organic anion transporting polypeptide 4 (Oatp4) in rat liver and comparison of its substrate specificity with Oatp1, Oatp2 and Oatp3” (Pflugers Arch, 2001).

In data set [1] the target is T1, Solute carrier organic anion transporter family member 1B2 (Rattus norvegicus, UniProt Q9QZX8).
T1 sequence (Q9QZX8 whole entry): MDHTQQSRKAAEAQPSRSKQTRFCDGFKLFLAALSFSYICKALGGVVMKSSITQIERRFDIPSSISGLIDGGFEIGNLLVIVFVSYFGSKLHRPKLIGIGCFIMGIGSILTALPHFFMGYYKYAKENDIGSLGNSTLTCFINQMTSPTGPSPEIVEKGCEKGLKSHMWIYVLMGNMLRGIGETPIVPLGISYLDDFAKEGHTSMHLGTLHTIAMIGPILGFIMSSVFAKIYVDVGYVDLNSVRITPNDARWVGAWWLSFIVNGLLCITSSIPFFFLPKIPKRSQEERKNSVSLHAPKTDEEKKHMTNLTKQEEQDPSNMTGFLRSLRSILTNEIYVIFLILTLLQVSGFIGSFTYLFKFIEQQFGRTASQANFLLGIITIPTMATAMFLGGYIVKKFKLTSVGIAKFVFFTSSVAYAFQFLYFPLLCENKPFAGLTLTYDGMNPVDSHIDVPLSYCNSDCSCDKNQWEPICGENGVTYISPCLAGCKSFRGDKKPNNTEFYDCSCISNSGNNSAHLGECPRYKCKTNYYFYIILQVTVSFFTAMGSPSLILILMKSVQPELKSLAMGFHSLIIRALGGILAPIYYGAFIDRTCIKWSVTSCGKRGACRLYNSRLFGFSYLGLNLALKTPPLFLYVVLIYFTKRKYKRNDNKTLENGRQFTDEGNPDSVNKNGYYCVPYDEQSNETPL
In words: (§1) TP_TRANSPORTER: uptake in Xenopus laevis oocytes. The data set is classed as functional, cell-based. The following applies: oocyte.

The target in data set [2] is T2, Solute carrier organic anion transporter family member 1A5 (Rattus norvegicus, UniProt O88397).
T2 sequence (O88397 whole entry): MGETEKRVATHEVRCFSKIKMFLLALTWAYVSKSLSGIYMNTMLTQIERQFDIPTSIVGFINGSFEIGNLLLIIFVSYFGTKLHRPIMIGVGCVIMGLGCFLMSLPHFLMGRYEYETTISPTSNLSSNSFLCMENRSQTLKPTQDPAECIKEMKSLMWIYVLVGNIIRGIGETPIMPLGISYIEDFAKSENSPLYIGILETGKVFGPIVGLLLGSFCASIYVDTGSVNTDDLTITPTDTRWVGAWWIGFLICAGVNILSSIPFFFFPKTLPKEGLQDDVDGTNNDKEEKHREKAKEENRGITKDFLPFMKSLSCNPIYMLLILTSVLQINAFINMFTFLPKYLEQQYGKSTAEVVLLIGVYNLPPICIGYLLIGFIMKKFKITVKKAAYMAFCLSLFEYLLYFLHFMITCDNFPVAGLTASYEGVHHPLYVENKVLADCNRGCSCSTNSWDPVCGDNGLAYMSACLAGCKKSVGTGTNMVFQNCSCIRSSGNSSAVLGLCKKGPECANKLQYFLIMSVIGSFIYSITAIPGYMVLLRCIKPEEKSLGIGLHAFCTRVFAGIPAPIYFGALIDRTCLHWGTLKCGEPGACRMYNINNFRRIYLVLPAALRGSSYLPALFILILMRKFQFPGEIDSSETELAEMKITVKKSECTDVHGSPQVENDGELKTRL
Described as §1. Type of data set: functional, cell-based, Oocyte. Conditions: oocyte.

In data set [3] the target is T3, Solute carrier organic anion transporter family member 1A4 (Rattus norvegicus, UniProt O35913).
T3 sequence (O35913 whole entry): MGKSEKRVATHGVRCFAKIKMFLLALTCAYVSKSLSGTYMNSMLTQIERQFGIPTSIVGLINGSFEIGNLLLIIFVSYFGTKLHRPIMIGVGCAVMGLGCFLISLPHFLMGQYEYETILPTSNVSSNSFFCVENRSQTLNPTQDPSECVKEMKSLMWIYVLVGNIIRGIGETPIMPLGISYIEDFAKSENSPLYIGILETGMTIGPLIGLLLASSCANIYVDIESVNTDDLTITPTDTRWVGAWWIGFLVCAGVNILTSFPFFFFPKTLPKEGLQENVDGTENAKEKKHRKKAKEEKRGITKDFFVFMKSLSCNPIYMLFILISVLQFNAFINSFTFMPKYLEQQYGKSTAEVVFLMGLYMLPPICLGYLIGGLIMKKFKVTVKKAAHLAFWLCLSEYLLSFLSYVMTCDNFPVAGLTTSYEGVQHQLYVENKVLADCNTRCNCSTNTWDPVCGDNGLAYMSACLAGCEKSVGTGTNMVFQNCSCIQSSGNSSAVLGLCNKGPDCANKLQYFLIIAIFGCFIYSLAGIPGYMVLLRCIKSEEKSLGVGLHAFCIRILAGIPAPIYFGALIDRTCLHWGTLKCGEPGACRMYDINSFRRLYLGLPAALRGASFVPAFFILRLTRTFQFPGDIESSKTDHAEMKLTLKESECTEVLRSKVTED
Described as §1. The data set is classed as functional, cell-based. Conditions: oocyte.

The target of data set [4] is T4, Solute carrier organic anion transporter family member 1A1 (Rattus norvegicus, UniProt P46720).
T4 sequence (P46720 whole entry): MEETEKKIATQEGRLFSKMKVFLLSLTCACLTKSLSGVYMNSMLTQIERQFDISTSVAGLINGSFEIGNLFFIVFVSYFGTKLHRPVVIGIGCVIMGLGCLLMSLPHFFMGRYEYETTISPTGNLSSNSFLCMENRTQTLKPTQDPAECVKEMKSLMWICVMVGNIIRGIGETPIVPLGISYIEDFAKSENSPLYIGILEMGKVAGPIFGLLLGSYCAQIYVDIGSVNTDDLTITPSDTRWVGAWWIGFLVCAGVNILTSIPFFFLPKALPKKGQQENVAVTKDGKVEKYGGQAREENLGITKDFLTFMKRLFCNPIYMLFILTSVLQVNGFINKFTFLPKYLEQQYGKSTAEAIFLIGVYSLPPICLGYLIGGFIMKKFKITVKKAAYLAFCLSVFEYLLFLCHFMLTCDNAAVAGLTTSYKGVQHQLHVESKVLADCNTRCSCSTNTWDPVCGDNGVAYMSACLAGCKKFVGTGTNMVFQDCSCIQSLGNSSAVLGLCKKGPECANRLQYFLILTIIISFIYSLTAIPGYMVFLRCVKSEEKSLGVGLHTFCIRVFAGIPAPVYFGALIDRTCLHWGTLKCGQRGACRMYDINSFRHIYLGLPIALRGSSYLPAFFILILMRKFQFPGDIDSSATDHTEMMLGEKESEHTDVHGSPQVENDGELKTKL
Described as §1. The data set is classed as functional, cell-based. Conditions: oocyte.

Data set [5] deals with T5, Solute carrier organic anion transporter family member 1A5 (Oatp1a5) (Rattus norvegicus, UniProt O88397).
T5 sequence (O88397 whole entry): T2 sequence (O88397 whole entry)
Described as §1. Type of data set: functional, cell-based, Oocyte. Conditions: Xenopus laevis oocytes.

Substrate in data set [6]: CCCCC[C@H](O)/C=C/[C@H]1[C@H](O)CC(=O)[C@@H]1C/C=C\CCCC(=O)O
The data set is described as §1. Type of data set: functional, cell-based, Oocyte.

Substrate in data set [7]: [H][C@@]12CC=C3C[C@@H](OS(=O)(=O)O)CC[C@]3(C)[C@@]1([H])CC[C@]1(C)C(=O)CC[C@@]21[H]
The description is as §1. Type of data set: functional, cell-based, Oocyte.

Substrate in data set [8]: O=C1OC(c2ccc(O)c(S(=O)(=O)O)c2)(c2ccc(O)c(S(=O)(=O)O)c2)c2c(Br)c(Br)c(Br)c(Br)c21
Described as §1. Type of data set: functional, cell-based, Oocyte.

Substrate in data set [9]: C[C@]12CC[C@@H]3c4ccc(OS(=O)(=O)O)cc4CC[C@H]3[C@@H]1CCC2=O
The data set is described as §1. Type of data set: functional, cell-based, Oocyte.

Substrate in data set [10]: CC1(C)SSC(C)(C)[C@@H](NC(=O)[C@@H](N)Cc2ccc(O)cc2)C(=O)NCC(=O)N[C@@H](Cc2ccccc2)C(=O)N[C@H]1C(=O)O
Described as §1. Type of data set: functional, cell-based, Oocyte.

Substrate in data set [11]: C[C@]12CC[C@@H]3c4ccc(O)cc4CC[C@H]3[C@@H]1CC[C@@H]2O[C@@H]1O[C@H](C(=O)O)[C@@H](O)[C@H](O)[C@H]1O
Described as §1. The data set is classed as functional, cell-based, Oocyte.

Substrate in data set [12]: CC(C)C[C@@H]1NC(=O)[C@@H](C(C)C)NC(=O)[C@@H]2CCCN2C(=O)[C@@H](CC(=O)O)NC(=O)[C@@H](Cc2c[nH]c3ccccc23)NC1=O
The data set is described as §1. The data set is classed as functional, cell-based, Oocyte.

Substrate in data set [13]: CCCCC/C=C\C\C=C/C=C/C=C/[C@@H](SC[C@@H](NC(=O)CC[C@H](N)C(=O)O)C(=O)NCC(=O)O)[C@@H](O)CCCC(=O)O
The description is as §1. Type of data set: functional, cell-based, Oocyte.

In the case of `C=C[C@H]1C[N+]2(C)CC[C@H]1C[C@H]2[C@H](O)c1ccnc2ccc(OC)cc12`, the Activity result in data set [1] and in data set [2] was “is not a substrate [-]” in each case.

With `Nc1ccc(C(=O)NCC(=O)O)cc1` [AMINOHIPPURIC ACID], the Activity result in data set [3], in data set [1] and in data set [2] was “is not a substrate [-]” in each case.

On to `CC(C)[C@H](NC(=O)[C@H](CCC(=O)O)NC(=O)[C@H](Cc1ccccc1)NC(=O)[C@@H](C)NC(=O)[C@@H](N)Cc1ccc(O)cc1)C(=O)N[C@H](C(=O)NCC(N)=O)C(C)C` [DELTORPHIN II], for which the Activity result in data set [1] and in data set [2] was “is not a substrate [-]” each time.

In the case of `CCCCC[C@H](O)/C=C/[C@H]1[C@H](O)CC(=O)[C@@H]1C/C=C\CCCC(=O)O` [DINOPROSTONE], the Activity entry in data set [4] was “is not a substrate [-]”.

In the case of `CN(Cc1cnc2nc(N)nc(N)c2n1)c1ccc(C(=O)N[C@@H](CCC(=O)O)C(=O)O)cc1` [METHOTREXATE], the Activity entry in data set [4], in [1] and in data set [2] was “is not a substrate [-]” in each case.

For the molecule `C[C@@H]1O[C@@H](O[C@H]2C[C@@H](O)[C@]3(CO)[C@H]4[C@H](O)C[C@]5(C)[C@@H](C6=CC(=O)OC6)CC[C@]5(O)[C@@H]4CC[C@]3(O)C2)[C@H](O)[C@H](O)[C@H]1O` [OUABAIN], the Activity entry in [1] was “is not a substrate [-]”. Besides, in data set [5], the Michaelis-Menten constant (Km) (usually the substrate concentration at which the rate is half of its maximum) was 1570 µM.

`C=CC[N+]1([C@H]2C[C@H]3[C@@H]4CC[C@H]5C[C@H](O)[C@@H](N6CCOCC6)C[C@]5(C)[C@H]4CC[C@]3(C)[C@H]2OC(C)=O)CCCC1` [ROCURONIUM]: the Activity entry was “is not a substrate [-]” in data set [1] and “substrate [+]” in data set [2].

As to `CC[N+](CC)(CC)CC` [TETRYLAMMONIUM], the Activity entry in [4], in data set [3], in data set [1] and in data set [2] was “is not a substrate [-]” each time.

B1: Solute carrier organic anion transporter family member 1A5 (Rattus norvegicus) (protein)
chain: T2 sequence (O88397 whole entry)
In the case of B1, the Michaelis constant (Km) in [6] was found to be 35 µM; in data set [7], 162 µM; in data set [8], 8.3 µM; in data set [9], 268 µM; in [10] it was 137 µM; in [11], 39 µM. The Km in data set [12] is 417 µM.

B2: Solute carrier organic anion transporter family member 1B2 (Rattus norvegicus) (protein)
chain: T1 sequence (Q9QZX8 whole entry)
With B2, the Michaelis-Menten constant (Km) in [6] stood at 13 µM; in [7] it was 5.3 µM; in data set [13] it was 6.5 µM; in [9], 37 µM; in [10], 22 µM; in [11], 32 µM. The Km in data set [12] turned out to be 13.8 µM.
